This passage reports TGI and GI50 results from PubChem BioAssay (NCI).

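Following 48 hours of exposure in 96-well plates, responses at five concentrations were used to interpolate endpoints linearly. Here, GI50 denotes the concentration required for 50% inhibition of growth. The concentration for full growth arrest is given as TGI.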 Some results are limits rather than exact numbers.

Some test systems named below: SF-268 CNS; DU-145 prostate; MDA-MB-231 breast; HOP-92 NSCLC; SK-MEL-5 melanoma; CAKI-1 renal; RXF 393 renal; EKVX NSCLC; SK-MEL-2 melanoma; MCF7 breast.
Common to all, as to assay: growth of human tumour cells (NCI), 48 h

In the case of `NC(=S)N=Nc1c(O)cc(Nc2ccc(Cl)cc2Cl)c2ccccc12`, the TGI with SF-268 CNS was > 100 µM; in the test on DU-145 prostate, > 100 µM; in the test with MDA-MB-231 breast it was 27.6 µM; in the test on HOP-92 NSCLC, 52.4 µM; in the test on SK-MEL-5 melanoma, 95.8 µM; in the test with CAKI-1 renal it was 38.6 µM. In addition, the TGI in the test on RXF 393 renal is 51.4 µM; with EKVX NSCLC, 94.4 µM; in the test on SK-MEL-2 melanoma it was > 100 µM; in the test with MCF7 breast it was > 100 µM.

Consider `CCN(CC(=O)O)CC(=O)O`, for which the TGI in the test with SF-268 CNS, with DU-145 prostate, in the test on MDA-MB-231 breast, in the test on HOP-92 NSCLC, with SK-MEL-5 melanoma and with CAKI-1 renal was > 100 µM each time. In addition, the TGI in the test on RXF 393 renal, with EKVX NSCLC, in the test with SK-MEL-2 melanoma and in the test with MCF7 breast was > 100 µM each time.

`O=C1c2c(c3c4ccc(Br)cc4oc3c3[nH]c4ccccc4c23)C(=O)N1O`: the GI50 in the test on DU-145 prostate was 3.23 µM; with MDA-MB-231 breast, 2.48 µM; with HOP-92 NSCLC, 1.74 µM; in the test on SK-MEL-5 melanoma, 1.48 µM; in the test on RXF 393 renal it was 2.1 µM; with SK-MEL-2 melanoma it was 2.34 µM. For the same compound, in the test with MCF7 breast, the GI50 is 1.12 µM. Further, the TGI was > 100 µM with DU-145 prostate; > 100 µM in the test on MDA-MB-231 breast; 4.45 µM in the test on HOP-92 NSCLC; 3.27 µM in the test on SK-MEL-5 melanoma; 6.34 µM in the test on RXF 393 renal; 7.23 µM in the test with SK-MEL-2 melanoma. Further, the TGI with MCF7 breast is > 100 µM.

Regarding `CC(C)(C)OC(=O)c1ccc(NCc2cc(O)ccc2O)cc1`, the TGI in the test with SF-268 CNS was determined as 17.3 µM; in the test on DU-145 prostate, 43.3 µM; with MDA-MB-231 breast, 9.31 µM; in the test on HOP-92 NSCLC it was 3.4 µM; with SK-MEL-5 melanoma, 13.1 µM; with CAKI-1 renal it was 2.61 µM. The TGI in the test with RXF 393 renal worked out at 3.35 µM; with EKVX NSCLC it was 12 µM; with SK-MEL-2 melanoma it was 18.8 µM; in the test on MCF7 breast it was 18.4 µM.

As for `Cc1cn(C2CC(OC(c3ccccc3)(c3ccccc3)c3ccccc3)C(COC(c3ccccc3)(c3ccccc3)c3ccccc3)O2)c(=O)[nH]c1=O` (configuration not stated), the TGI with SF-268 CNS was > 100 µM; in the test with DU-145 prostate it was > 100 µM; in the test with MDA-MB-231 breast, > 100 µM; in the test with HOP-92 NSCLC, 83.6 µM; in the test with SK-MEL-5 melanoma, > 100 µM; in the test with CAKI-1 renal it was > 100 µM. For the same compound, the TGI in the test with RXF 393 renal, in the test on EKVX NSCLC, in the test with SK-MEL-2 melanoma and with MCF7 breast was > 100 µM each time.

Regarding `COP(=O)(CC(=O)C1OC(OCc2ccccc2)C(OCc2ccccc2)C(OCc2ccccc2)C1OCc1ccccc1)OC` (configuration not stated), the TGI was > 100 µM in the test on SF-268 CNS; > 100 µM in the test on DU-145 prostate; 61.1 µM in the test with MDA-MB-231 breast; 85.7 µM in the test on HOP-92 NSCLC; 16.8 µM in the test with SK-MEL-5 melanoma; 19.5 µM in the test on CAKI-1 renal. Moreover, the TGI was 19.4 µM with RXF 393 renal, 50.4 µM in the test with EKVX NSCLC, 11 µM with SK-MEL-2 melanoma and 37.4 µM in the test with MCF7 breast.

For the compound `Cc1ccc(-n2cc(-c3ccc(Cl)cc3)c3c2N=CN2NC(c4ccco4)=NC32)cc1` (configuration not stated), the TGI in the test on SF-268 CNS was 83.6 µM; with DU-145 prostate it was > 100 µM; with MDA-MB-231 breast it was 26 µM; in the test on HOP-92 NSCLC, 9.88 µM; in the test on SK-MEL-5 melanoma, > 100 µM; in the test on CAKI-1 renal it was 27.3 µM. Moreover, the TGI in the test on RXF 393 renal was 30.7 µM; in the test on EKVX NSCLC, > 100 µM; in the test with SK-MEL-2 melanoma it was 27.5 µM; in the test on MCF7 breast, > 100 µM.

As for `CCN(C(=O)N[C@H](C(=O)N[C@@H](C)C(=O)OC)C(C)C)c1ccccc1`, the TGI was > 100 µM in the test with SF-268 CNS; > 100 µM with DU-145 prostate; > 100 µM in the test on MDA-MB-231 breast; 78.6 µM in the test with HOP-92 NSCLC; > 100 µM in the test on SK-MEL-5 melanoma; > 100 µM in the test on CAKI-1 renal. Also, the TGI was > 100 µM in the test with RXF 393 renal, > 100 µM in the test on EKVX NSCLC, 78.3 µM with SK-MEL-2 melanoma and > 100 µM in the test on MCF7 breast.

Regarding `O=C(CN=C(CN(c1ccccc1)c1ccccc1)Oc1c(Cl)cc(Cl)cc1Cl)n1cnc2ccccc21`, the TGI in the test on SF-268 CNS was > 100 µM; with DU-145 prostate, > 100 µM; with MDA-MB-231 breast it was > 100 µM; with HOP-92 NSCLC, > 100 µM; in the test on SK-MEL-5 melanoma it was > 100 µM; with RXF 393 renal it was 25.6 µM. Further, the TGI in the test on EKVX NSCLC and in the test on MCF7 breast was > 100 µM throughout.

Take `N/C(CSCCSC/C(N)=N/O)=N\O`: the TGI with SF-268 CNS, with DU-145 prostate, in the test with MDA-MB-231 breast, with HOP-92 NSCLC, with SK-MEL-5 melanoma and with CAKI-1 renal was > 100 µM throughout. Besides, the TGI in the test on RXF 393 renal, with EKVX NSCLC and in the test on MCF7 breast was > 100 µM each time.

Turning to `COC(=O)c1cc(C(=O)OC)cc(-c2ccc3c(c2)-c2nc4c(c(-c5ccc(OC)cc5)c2CC3)CCc2ccc(-c3cc(C(=O)OC)cc(C(=O)OC)c3)cc2-4)c1`, the TGI with SF-268 CNS, in the test with DU-145 prostate, in the test with MDA-MB-231 breast, in the test on HOP-92 NSCLC, in the test on SK-MEL-5 melanoma and in the test with CAKI-1 renal was > 100 µM each time. In addition, the values for the TGI in the test on EKVX NSCLC, with SK-MEL-2 melanoma and in the test with MCF7 breast were 31.3 µM, > 100 µM and > 100 µM, respectively.

Take `Cc1ccc2c(c1)C(=O)/C(=C\c1ccc(Cl)cc1)CCS2(=O)=O`: the TGI is 16.1 µM in the test on SF-268 CNS; 8.15 µM in the test on DU-145 prostate; 9.41 µM in the test on MDA-MB-231 breast; 18.3 µM in the test with HOP-92 NSCLC; 7.8 µM with SK-MEL-5 melanoma; 7.82 µM with CAKI-1 renal. For the same compound, the values for the TGI with EKVX NSCLC, in the test on SK-MEL-2 melanoma and in the test with MCF7 breast were 25.3 µM, 61 µM and 14 µM, respectively.

For the compound `O=CN(O)CC(=O)O`, the TGI in the test with SF-268 CNS, in the test with DU-145 prostate, with MDA-MB-231 breast, in the test with HOP-92 NSCLC, in the test with SK-MEL-5 melanoma and in the test with RXF 393 renal was > 100 µM each time. The TGI in the test on EKVX NSCLC, in the test on SK-MEL-2 melanoma and in the test with MCF7 breast was > 100 µM throughout.

As for `CC1=NC(C)(C)N(O)C1(C)C`, the TGI in the test with SF-268 CNS, in the test with DU-145 prostate, in the test with MDA-MB-231 breast, in the test on HOP-92 NSCLC, in the test on SK-MEL-5 melanoma and in the test with RXF 393 renal was > 100 µM throughout. For the same compound, the TGI with EKVX NSCLC, with SK-MEL-2 melanoma and in the test on MCF7 breast was > 100 µM each time.
